This is an account of results in ChEMBL document CHEMBL1134884, “Novel indolo[2,1-b]quinazoline analogues as cytostatic agents: synthesis, biological evaluation and structure-activity relationship” (Bioorg Med Chem Lett, 2002).

Data set [1] is filed under the species Mus musculus. The data set is described as follows: Antitumor activity after 17 days was determined. The class given is functional.
Data set [2] concerns NCI-H522. The data set is described as follows: Tested for in vitro cytotoxic activity against lung H522 human cancer cell lines. The class given is functional.
The subject of data set [3] is SW-620. The data set can be described thus: Tested for in vitro cytotoxic activity against colon SW620 human cancer cell lines. Format: functional.
Data set [4] can be described thus: Bioavailability (dose 20 mg/kg). The class given is ADME, organism-based. The note with it: eutheria, in vivo.
Data set [5] has as its system NCI/ADR-RES. The data set can be described thus: Tested for in vitro cytotoxic activity against breast MCF-7/ADR human cancer cell lines. Format: functional.
Data set [6] concerns DU-145. The data set can be described thus: Tested for in vitro cytotoxic activity against prostate DU145 human cancer cell lines. Format: functional.
Data set [7] has as its system A498. The data set is described as follows: Tested for in vitro cytotoxic activity against renal A498 human cancer cell lines. The class given is functional.
Data set [8] concerns M14. The data set can be described thus: Tested for in vitro cytotoxic activity against melanoma M14 human cancer cell lines. Format: functional.
Data set [9] has as its system Mus musculus. The data set is described as follows: Maximum mean weight loss on 26th day after administration of 40 mg/kg daily for 10 days(total 400 mg/kg). The class given is functional.
The subject of data set [10] is U-251. The data set is described as follows: Tested for in vitro cytotoxic activity against CNS U251 human cancer cell lines. The class given is functional.
In data set [11] the test system is SK-OV-3. The data set is described as follows: Tested for in vitro cytotoxic activity against ovarian SKOV3 human cancer cell lines. Format: functional.
Data set [12] is filed under the species Mus musculus. The data set can be described thus: Antitumor activity after 24 days was determined. Format: functional.
The subject of data set [13] is Mus musculus. The data set is described as follows: Maximum mean weight loss on 24th day after administration of 40 mg/kg daily for 10 days(total 400 mg/kg). Format: functional.

Turning to `CN(C)CCCO/N=C1\c2cc([N+](=O)[O-])ccc2-n2c1nc1ccccc1c2=O`, the “Optimum T/C” value in data set [1] is given as 23%. The GI50 – broadly, the concentration that inhibits growth by half – in data set [2] turned out to be 0.4 µM; in data set [3] it was 0.5 µM; in data set [5] it was 4 µM; in data set [6] it was 2 µM; in [7], 0.09 µM; in [8], 0.4 µM. The GI50 in [10] turned out to be 2.5 µM; in [11] it was 0.6 µM. Moreover, in data set [4], the bioavailability (usually dose-corrected exposure relative to a reference, in per cent) is 76%. The “Max mean weight loss” value in [9] turned out to be 14%.
In the case of `COc1ccc2c(c1)C(=O)c1nc3ccccc3c(=O)n1-2`, the GI50 in data set [2], in [3], in data set [5], in data set [6], in data set [7] and in data set [8] was more than 100 µM in each case. In addition, the GI50 in data set [10] and in [11] was more than 100 µM each time.
Take `O=C1c2cc(Cl)ccc2-n2c1nc1ccccc1c2=O`: the GI50 in data set [2], in data set [3], in [5], in data set [6], in [7] and in data set [8] was more than 100 µM each time. Also, the GI50 in data set [10] and in data set [11] was more than 100 µM in each case.
With `COC(=O)CO/N=C1\c2ccccc2-n2c1nc1ccccc1c2=O`, the GI50 in [2] is 80 µM; in data set [3], more than 100 µM; in data set [5] it was 0.01 µM; in [6] it was 30 µM; in data set [7] it was more than 100 µM; in data set [8], 40 µM. Moreover, the results for the GI50 in data set [10] and in [11] were more than 100 µM and 50 µM, respectively.
As for `CCCCC1(O)c2ccccc2-n2c1nc1ccccc1c2=O` (centres undefined), the GI50 in data set [2], in [3], in data set [5], in data set [6], in data set [7] and in data set [8] was more than 100 µM throughout. The GI50 in data set [10] and in data set [11] was more than 100 µM each time.
With `O=C1c2ccccc2-n2c1nc1ccc(Br)cc1c2=O`, the concentration for 50% growth inhibition (GI50) in data set [2], in data set [3], in data set [5], in data set [6], in data set [7] and in [8] was more than 100 µM in each case. Besides, the GI50 in [10] and in data set [11] was more than 100 µM throughout.
Regarding `CN(C)CCO/N=C1\c2cc([N+](=O)[O-])ccc2-n2c1nc1ccccc1c2=O`, the GI50 is 9 µM in data set [2]; 0.75 µM in [3]; 4 µM in data set [5]; more than 100 µM in data set [6]; more than 100 µM in [7]; 7.5 µM in [8]. Besides, the GI50 in data set [10] stood at 7.5 µM; in data set [11], 9 µM.
As to `O=C1c2cc(Br)ccc2-n2c1nc1ccccc1c2=O`, the GI50 came to 0.7 µM in data set [2]; 0.4 µM in data set [3]; 0.7 µM in data set [5]; 0.15 µM in data set [6]; 3 µM in data set [7]; 0.8 µM in [8]. Further, the results for the GI50 in data set [10] and in data set [11] were more than 100 µM and 5 µM, respectively.
As to `CC(=O)Nc1ccc2c(c1)C(=O)c1nc3ccccc3c(=O)n1-2`, the GI50 in data set [2] amounted to 5 µM; in data set [3], 30 µM; in data set [5], 0.4 µM; in data set [6], 0.5 µM; in data set [7], 0.4 µM; in [8], 10 µM. The GI50 in data set [10] and in data set [11] was 20 µM each time.
Take `O=C1c2ccccc2-n2c1nc1ccc([N+](=O)[O-])cc1c2=O`: the GI50 in [2], in data set [3], in data set [5], in data set [6], in data set [7] and in data set [8] was more than 100 µM in each case. Moreover, the GI50 in [10] and in data set [11] was more than 100 µM throughout.
With `CN(C)CCO/N=C1\c2ccccc2-n2c1nc1ccccc1c2=O`, the “Optimum T/C” value in data set [12] was 75%. The GI50 in [2] was 0.7 µM; in data set [3] it was 0.75 µM; in data set [5], 0.4 µM; in [6] it was 2.5 µM; in data set [7], 0.6 µM; in data set [8] it was 2 µM. Besides, the GI50 in [10] came to 0.8 µM; in data set [11], 2 µM. Further, in [4], the bioavailability worked out at 14%. In data set [13], the “Max mean weight loss” value came out at 14%.
With `O=c1c2ccccc2nc2n1-c1ccccc1/C2=N\OCCN1CCCC1`, the GI50 in data set [2] was 3 µM; in data set [3], 0.85 µM; in [5], 6 µM; in data set [6], 3 µM; in data set [7] it was 5 µM; in data set [8], 2 µM. Further, the GI50 stood at 25 µM in data set [10] and 3 µM in data set [11].
Take `CC1(O)c2ccccc2-n2c1nc1ccccc1c2=O` (centres undefined): the GI50 in data set [2], in data set [3], in data set [5], in data set [6], in data set [7] and in [8] was more than 100 µM each time. Further, the GI50 in data set [10] and in [11] was more than 100 µM each time.
On to `Nc1ccc2c(c1)C(=O)c1nc3ccccc3c(=O)n1-2`, for which the GI50 is 5 µM in data set [2]; 4.8 µM in data set [3]; 5 µM in data set [5]; 2 µM in data set [6]; 3 µM in data set [7]; 5 µM in [8]. The GI50 in data set [10] was 0.7 µM; in data set [11], 5 µM.
Consider `O=c1c2ccccc2nc2n1-c1ccc(Br)cc1/C2=N\OCCN1CCCCC1`, for which the GI50 in data set [2] was found to be 2 µM; in data set [3] it was 3 µM; in [5], 0.3 µM; in data set [6], 0.55 µM; in data set [7], 2 µM; in [8], 2.5 µM. The GI50 in data set [10] came to 0.095 µM; in [11], 1 µM.
Consider `CN(C)CCCO/N=C1\c2ccccc2-n2c1nc1ccccc1c2=O`, for which the GI50 in data set [2] came out at 0.6 µM; in [3], 4 µM; in data set [5] it was 7.5 µM; in [6], 3.5 µM; in data set [7] it was 4 µM; in data set [8] it was 5 µM. Also, the GI50 in data set [10] amounted to 0.7 µM; in data set [11], 2 µM.
